Experimental data from ChEMBL document CHEMBL1287741, “Synthesis, antiproliferative activity in cancer cells and theoretical studies of novel 6α,7β-dihydroxyvouacapan-17β-oic acid Mannich base derivatives” (2010).
≈ marks a conversion by molar mass, not a printed value.

Assays:
Format in all cases: functional
NCI/ADR-RES = assay: Growth inhibition of human NCI-ADR-RES cells after 48 hrs by sulforhodamine B assay
MCF7 = assay: Growth inhibition of human MCF7 cells after 48 hrs by sulforhodamine B assay; details: MCF7, 48 h
786-0 = assay: Growth inhibition of human 786-0 cells after 48 hrs by sulforhodamine B assay; details: 786-0, 48 h
NCI-H460 = assay: Growth inhibition of human NCI-H460 cells after 48 hrs by sulforhodamine B assay; details: NCI-H460, 48 h
HT-29 = assay: Growth inhibition of human HT-29 cells after 48 hrs by sulforhodamine B assay; details: HT-29, 48 h
OVCAR-3 = assay: Growth inhibition of human OVCAR-3 cells after 48 hrs by sulforhodamine B assay; details: OVCAR-3, 48 h
PC-3 = assay: Growth inhibition of human PC3 cells after 48 hrs by sulforhodamine B assay; details: PC-3, 48 h
UACC-62 = assay: Growth inhibition of human UACC62 cells after 48 hrs by sulforhodamine B assay; details: UACC-62, 48 h
K562 = assay: Growth inhibition of human K562 cells after 48 hrs by sulforhodamine B assay; details: K562, 48 h

For CCN(CC)Cc1cc2c(o1)C[C@H]1[C@H]3[C@@H](OC(=O)[C@H]23)[C@H](O)[C@H]2C(C)(C)CCC[C@]12C, the GI50 (NCI/ADR-RES) was 3.12 µg/mL (≈ 7.51 µM), the TGI (NCI/ADR-RES) was 8.15 µg/mL (≈ 19.6 µM) and the GI50 (MCF7) was 0.27 µg/mL (≈ 0.65 µM). The TGI (MCF7) was 1.44 µg/mL (≈ 3.47 µM), the GI50 (786-0) was 2.23 µg/mL (≈ 5.37 µM) and the TGI (786-0) was 2.49 µg/mL (≈ 5.99 µM). The GI50 (NCI-H460) was 1.35 µg/mL (≈ 3.25 µM), the TGI (NCI-H460) was 3.23 µg/mL (≈ 7.77 µM) and the GI50 (HT-29) was 0.32 µg/mL (≈ 0.77 µM). The TGI (HT-29) was 1.14 µg/mL (≈ 2.74 µM), the GI50 (OVCAR-3) was 2.5 µg/mL (≈ 6.02 µM) and the TGI (OVCAR-3) was 5.62 µg/mL (≈ 13.5 µM). It also gave a GI50 (PC-3) of 0.28 µg/mL (≈ 0.674 µM), a TGI (PC-3) of 0.58 µg/mL (≈ 1.4 µM) and a GI50 (UACC-62) of 0.57 µg/mL (≈ 1.37 µM). The TGI (UACC-62) was 2.55 µg/mL (≈ 6.14 µM), the GI50 (K562) was under 0.25 µg/mL and the TGI (K562) was 3.01 µg/mL (≈ 7.24 µM).

CCCN(CCC)Cc1cc2c(o1)C[C@H]1[C@H]3[C@@H](OC(=O)[C@H]23)[C@H](O)[C@H]2C(C)(C)CCC[C@]12C gave a GI50 (NCI/ADR-RES) of 2.64 µg/mL (≈ 5.95 µM), a TGI (NCI/ADR-RES) of 5.53 µg/mL (≈ 12.5 µM) and a GI50 (MCF7) of 2.5 µg/mL (≈ 5.64 µM). The TGI (MCF7) was 5.31 µg/mL (≈ 12 µM), the GI50 (786-0) was 2.5 µg/mL (≈ 5.64 µM) and the TGI (786-0) was 3.72 µg/mL (≈ 8.39 µM). For the same compound, the GI50 (NCI-H460) was 2.96 µg/mL (≈ 6.67 µM), the TGI (NCI-H460) was 6.01 µg/mL (≈ 13.5 µM) and the GI50 (HT-29) was 2.33 µg/mL (≈ 5.25 µM). It also gave a TGI (HT-29) of 3.35 µg/mL (≈ 7.55 µM), a GI50 (OVCAR-3) of 2.36 µg/mL (≈ 5.32 µM) and a TGI (OVCAR-3) of 3.9 µg/mL (≈ 8.79 µM). The GI50 (PC-3) was 2.4 µg/mL (≈ 5.41 µM), the TGI (PC-3) was 3.83 µg/mL (≈ 8.63 µM) and the GI50 (UACC-62) was 2.76 µg/mL (≈ 6.22 µM). It also gave a TGI (UACC-62) of 4.96 µg/mL (≈ 11.2 µM), a GI50 (K562) of 2.77 µg/mL (≈ 6.24 µM) and a TGI (K562) of 8.87 µg/mL (≈ 20 µM).

In the case of CC(C)CN(Cc1cc2c(o1)C[C@H]1[C@H]3[C@@H](OC(=O)[C@H]23)[C@H](O)[C@H]2C(C)(C)CCC[C@]12C)CC(C)C, the GI50 (NCI/ADR-RES) is reported as 0.39 µg/mL (≈ 0.827 µM), the TGI (NCI/ADR-RES) is reported as 5.39 µg/mL (≈ 11.4 µM) and the GI50 (MCF7) is reported as 0.69 µg/mL (≈ 1.46 µM). For the same compound, the TGI (MCF7) was 7.4 µg/mL (≈ 15.7 µM), the GI50 (786-0) was 2.5 µg/mL (≈ 5.3 µM) and the TGI (786-0) was 16.6 µg/mL (≈ 35.3 µM). For the same compound, the GI50 (NCI-H460) was 0.29 µg/mL (≈ 0.615 µM), the TGI (NCI-H460) was 3.2 µg/mL (≈ 6.78 µM) and the GI50 (HT-29) was 0.67 µg/mL (≈ 1.42 µM). For the same compound, the TGI (HT-29) was 6.91 µg/mL (≈ 14.6 µM), the GI50 (OVCAR-3) was 0.28 µg/mL (≈ 0.594 µM) and the TGI (OVCAR-3) was 1.86 µg/mL (≈ 3.94 µM). The GI50 (PC-3) was 0.98 µg/mL (≈ 2.08 µM), the TGI (PC-3) was 4.06 µg/mL (≈ 8.61 µM) and the GI50 (UACC-62) was 0.86 µg/mL (≈ 1.82 µM). For the same compound, the TGI (UACC-62) was 5.27 µg/mL (≈ 11.2 µM), the GI50 (K562) was 5.06 µg/mL (≈ 10.7 µM) and the TGI (K562) was 86.1 µg/mL (≈ 182 µM).

In the case of CC1(C)CCC[C@]2(C)[C@H]3Cc4oc(CN5CCCC5)cc4[C@H]4C(=O)O[C@@H]([C@H](O)[C@@H]12)[C@@H]43, the GI50 (NCI/ADR-RES) is reported as 2.5 µg/mL (≈ 6.05 µM), the TGI (NCI/ADR-RES) is reported as 6.18 µg/mL (≈ 14.9 µM) and the GI50 (MCF7) is reported as 1.81 µg/mL (≈ 4.38 µM). It also gave a TGI (MCF7) of 3.86 µg/mL (≈ 9.33 µM), a GI50 (786-0) of 0.76 µg/mL (≈ 1.84 µM) and a TGI (786-0) of 3.98 µg/mL (≈ 9.62 µM). It also gave a GI50 (NCI-H460) of 2.5 µg/mL (≈ 6.05 µM), a TGI (NCI-H460) of 4.94 µg/mL (≈ 11.9 µM) and a GI50 (HT-29) of 0.3 µg/mL (≈ 0.725 µM). For the same compound, the TGI (HT-29) was 1.61 µg/mL (≈ 3.89 µM), the GI50 (OVCAR-3) was 2.5 µg/mL (≈ 6.05 µM) and the TGI (OVCAR-3) was 5.28 µg/mL (≈ 12.8 µM). It also gave a GI50 (PC-3) of 0.34 µg/mL (≈ 0.822 µM), a TGI (PC-3) of 1.69 µg/mL (≈ 4.09 µM) and a GI50 (UACC-62) of 0.78 µg/mL (≈ 1.89 µM). The TGI (UACC-62) was 3.05 µg/mL (≈ 7.38 µM), the GI50 (K562) was 1.58 µg/mL (≈ 3.82 µM) and the TGI (K562) was 23.2 µg/mL (≈ 56.1 µM).
